In ChEMBL document CHEMBL4673353, “Switching a Xanthine Oxidase Inhibitor to a Dual-Target Antagonist of P2Y and P2Y as an Oral Antiplatelet Agent with a Wider Therapeutic Window in Rats than Ticagrelor” (J Med Chem, 2020):

Test system: not listed separately
Assay: Antagonist activity at P2Y1 in rabbit platelet-rich plasma assessed as inhibition of ADP-induced increase in intracellular Ca2+ concentration preincubated for 5 mins followed by ADP addition and measured for 3 mins by fluo4 dye-based fluorescence assay
Assay type: cell-free
Details: Oryctolagus cuniculus
With `CC(C)(C)c1ccccc1Oc1ncccc1NC(=O)Nc1ccc(OC(F)(F)F)cc1` the IC50 was 3.03 µM.

Test system: Rattus norvegicus
Assay: Antithrombotic activity in FeCl3-induced Sprague-Dawley rat model of arterial thrombosis assessed as reduction in thrombus weight at 10 mg/kg, po qd administered as single dose for 7 days and measured 2 hrs post last dose
Assay type: functional
Set-up: scale not given: the % may be the effect or the level left
Details: time 7 day
In the case of `CCCSc1nc(N[C@@H]2C[C@H]2c2ccc(F)c(F)c2)c2nnn([C@@H]3C[C@H](OCCO)[C@@H](O)[C@H]3O)c2n1` [TICAGRELOR], the Activity is reported as 39.2%.

Test system: not listed separately
Assay: Toxicity in Sprague-Dawley rat model of tail snip bleeding assessed as bleeding weight at 10 mg/kg, po administered via gavage as single dose measured within 2 hrs post tail snip(reference value: 0.08 g)
Assay type: organism-based
Details: in vivo
For `CCCSc1nc(N[C@@H]2C[C@H]2c2ccc(F)c(F)c2)c2nnn([C@@H]3C[C@H](OCCO)[C@@H](O)[C@H]3O)c2n1` [TICAGRELOR], the Activity was 3.89 g.

Test system: not listed separately
Assay: Toxicity in Sprague-Dawley rat model of tail-snip bleeding assessed as bleeding time at 10 mg/kg, po administered via gavage as single dose measured within 2 hrs post tail snip (reference value: 17.69 min)
Assay type: organism-based
Details: in vivo
Compound `CCCSc1nc(N[C@@H]2C[C@H]2c2ccc(F)c(F)c2)c2nnn([C@@H]3C[C@H](OCCO)[C@@H](O)[C@H]3O)c2n1` [TICAGRELOR] has a Time of 120 min.

Target: P2Y purinoceptor 12 (Homo sapiens, UniProt Q9H244)
Sequence (Q9H244 whole entry): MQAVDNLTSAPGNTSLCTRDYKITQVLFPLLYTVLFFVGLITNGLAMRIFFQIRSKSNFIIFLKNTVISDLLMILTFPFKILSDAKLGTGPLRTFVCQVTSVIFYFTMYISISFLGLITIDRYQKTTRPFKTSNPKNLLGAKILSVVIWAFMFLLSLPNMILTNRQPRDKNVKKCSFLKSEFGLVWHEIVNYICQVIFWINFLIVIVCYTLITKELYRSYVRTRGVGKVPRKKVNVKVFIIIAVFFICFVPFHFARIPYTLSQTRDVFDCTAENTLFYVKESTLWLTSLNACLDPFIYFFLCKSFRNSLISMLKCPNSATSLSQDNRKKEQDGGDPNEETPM
Assay: Antagonist activity at P2Y12 in human whole blood assessed as suppression of ADP-induced decrease in PGE1-induced VASP phosphorylation measured after 10 mins by immunostaining based flow cytometric analysis
Assay type: tissue-based
Details: not given
Work on `CCCSc1nc(N[C@@H]2C[C@H]2c2ccc(F)c(F)c2)c2nnn([C@@H]3C[C@H](OCCO)[C@@H](O)[C@H]3O)c2n1` [TICAGRELOR] yielded an IC50 of 5.14 µM. In the case of `CNc1nc(Cl)nc2c1ncn2CC(COC(=O)C(C)(C)C)COC(=O)C(C)(C)C`, the IC50 is reported as 176 µM.

Test system: Plasma
Assay: Antiplatelet activity in rabbit platelet-rich plasma assessed as inhibition of ADP-induced platelet aggregation preincubated for 5 mins followed by ADP addition measured every 1 min for up to 6 mins by microplate reader analysis
Assay type: functional, cell-free
Details: Oryctolagus cuniculus
In the case of `CCOC(=O)c1c(C)nc(-c2ccccc2)n1OC`, the IC50 is reported as > 30 µM. For `CCOC(=O)c1c(C)nc(-c2cccc(C#N)c2)n1OCCCO`, the IC50 was 11.4 µM. With `CCOC(=O)c1c(C)nc(-c2cccc(C#N)c2)n1OCc1ccccc1` the IC50 was 5.93 µM. With `C=CCOn1c(-c2cccc(C#N)c2)nc(C)c1C(=O)OCC` the IC50 was 5.86 µM. With `CCOCCOn1c(-c2cccc(C#N)c2)nc(C)c1C(=O)OCC` the IC50 was 6.25 µM. For `Cc1ccc(COn2c(-c3cccc(C#N)c3)nc(C)c2C(=O)O)cc1`, the IC50 was 6.56 µM. Work on `CCOC(=O)c1c(C)nc(-c2cccc(C#N)c2)n1OCc1cccc(Cl)c1` yielded an IC50 of 19.4 µM. `Cc1nc(-c2ccc(OCC(C)C)c(C#N)c2)n(O)c1C(=O)O` gave an IC50 of 15.7 µM. `CCOC(=O)c1c(C)nc(-c2cccc(C#N)c2)n1OC(C)C` gave an IC50 of 6.74 µM. In the case of `CCOC(=O)c1c(C)nc(-c2cccc(C#N)c2)n1OCc1ccc(C(=O)OC)cc1`, the IC50 is reported as 9.47 µM. `COn1c(-c2cccc(C#N)c2)nc(C)c1C(=O)O` showed an IC50 of 7.99 µM. `C=CCOn1c(-c2cccc(C#N)c2)nc(C)c1C(=O)O` showed an IC50 of 6.35 µM. In the case of `CCOC(=O)c1c(C)nc(-c2cccc(C#N)c2)n1OCC(N)=O`, the IC50 is reported as > 30 µM. With `CCCSc1nc(N[C@@H]2C[C@H]2c2ccc(F)c(F)c2)c2nnn([C@@H]3C[C@H](OCCO)[C@@H](O)[C@H]3O)c2n1` [TICAGRELOR] the IC50 was 7.21 µM. For `CCOC(=O)c1c(C)nc(-c2cccc(C#N)c2)n1OCc1ccc(F)cc1`, the IC50 was 5.88 µM. For `CCOC(=O)c1c(C)nc(-c2cccc(C#N)c2)n1C(C)C`, the IC50 was 9.26 µM. Compound `CCOC(=O)c1c(C)nc(-c2cccc(C#N)c2)n1OCc1ccncc1` has an IC50 of 6.2 µM. Work on `CCOC(=O)c1c(C)nc(-c2cccc(C#N)c2)n1OCc1ccc([N+](=O)[O-])cc1` yielded an IC50 of 8.75 µM. Work on `CCOC(=O)c1c(C)nc(-c2cccc(C#N)c2)n1OCc1ccc(Br)cc1` yielded an IC50 of 24.6 µM. Compound `CC(C)(C)c1ccccc1Oc1ncccc1NC(=O)Nc1ccc(OC(F)(F)F)cc1` has an IC50 of 5.54 µM. In the case of `CCOC(=O)c1c(C)nc(-c2cccc(C#N)c2)n1OCCC(=O)O`, the IC50 is reported as > 30 µM. Work on `CCOC(=O)c1c(C)nc(-c2ccc(C#N)cc2)n1OC` yielded an IC50 of 13.4 µM. `CCOC(=O)c1c(C)nc(-c2cccc(C#N)c2)n1OCc1cccc(F)c1` gave an IC50 of 22.4 µM. With `CCOC(=O)c1[nH]c(-c2cccc(C#N)c2)nc1C` the IC50 was > 30 µM. `CCOC(=O)c1c(C)nc(-c2cccc(C#N)c2)n1OCc1ccc(OC)cc1` gave an IC50 of 6.83 µM. With `CCOC(=O)c1c(C)nc(-c2cccc(C#N)c2)n1OCc1ccccc1F` the IC50 was 8.99 µM. In the case of `CCOC(=O)c1c(C)nc(-c2cccc(C#N)c2)n1OCc1cccc(C#N)c1`, the IC50 is reported as > 30 µM. `CCOC(=O)c1c(C)nc(-c2cccc(C#N)c2)n1C` gave an IC50 of 22.1 µM. `CCOC(=O)COn1c(-c2cccc(C#N)c2)nc(C)c1C(=O)OCC` showed an IC50 of 6.8 µM. For `CCOC(=O)c1c(C)nc(-c2cccc(C#N)c2)n1OCc1ccccc1Cl`, the IC50 was 8.71 µM. In the case of `CCOC(=O)c1c(C)nc(-c2cccc(C#N)c2)n1OC`, the IC50 is reported as 9.13 µM. `CCOC(=O)c1c(C)nc(-c2cccc(C#N)c2)n1OCc1ccccc1C#N` showed an IC50 of 9.38 µM. In the case of `CCOC(=O)c1c(C)nc(-c2cccc(C#N)c2)n1OCc1ccc(C)cc1`, the IC50 is reported as 6.31 µM. Work on `CCOC(=O)c1c(C)nc(-c2cccc(C#N)c2)n1OCc1ccc(Cl)cc1` yielded an IC50 of 6.83 µM. Compound `CCOC(=O)c1c(C)nc(-c2ccc(OCC(C)C)c(C#N)c2)n1O` has an IC50 of 16.8 µM. For `CCOC(=O)c1c(C)nc(-c2ccccc2C#N)n1OC`, the IC50 was 14.9 µM. Compound `Cc1nc(-c2cccc(C#N)c2)n(OCc2ccccc2)c1C(=O)O` has an IC50 of 6.24 µM. With `CCOC(=O)c1c(C)nc(-c2cccc(C#N)c2)n1O` the IC50 was 17.6 µM.

Target: Xanthine dehydrogenase/oxidase (Bos taurus, UniProt P80457)
Sequence (P80457 whole entry): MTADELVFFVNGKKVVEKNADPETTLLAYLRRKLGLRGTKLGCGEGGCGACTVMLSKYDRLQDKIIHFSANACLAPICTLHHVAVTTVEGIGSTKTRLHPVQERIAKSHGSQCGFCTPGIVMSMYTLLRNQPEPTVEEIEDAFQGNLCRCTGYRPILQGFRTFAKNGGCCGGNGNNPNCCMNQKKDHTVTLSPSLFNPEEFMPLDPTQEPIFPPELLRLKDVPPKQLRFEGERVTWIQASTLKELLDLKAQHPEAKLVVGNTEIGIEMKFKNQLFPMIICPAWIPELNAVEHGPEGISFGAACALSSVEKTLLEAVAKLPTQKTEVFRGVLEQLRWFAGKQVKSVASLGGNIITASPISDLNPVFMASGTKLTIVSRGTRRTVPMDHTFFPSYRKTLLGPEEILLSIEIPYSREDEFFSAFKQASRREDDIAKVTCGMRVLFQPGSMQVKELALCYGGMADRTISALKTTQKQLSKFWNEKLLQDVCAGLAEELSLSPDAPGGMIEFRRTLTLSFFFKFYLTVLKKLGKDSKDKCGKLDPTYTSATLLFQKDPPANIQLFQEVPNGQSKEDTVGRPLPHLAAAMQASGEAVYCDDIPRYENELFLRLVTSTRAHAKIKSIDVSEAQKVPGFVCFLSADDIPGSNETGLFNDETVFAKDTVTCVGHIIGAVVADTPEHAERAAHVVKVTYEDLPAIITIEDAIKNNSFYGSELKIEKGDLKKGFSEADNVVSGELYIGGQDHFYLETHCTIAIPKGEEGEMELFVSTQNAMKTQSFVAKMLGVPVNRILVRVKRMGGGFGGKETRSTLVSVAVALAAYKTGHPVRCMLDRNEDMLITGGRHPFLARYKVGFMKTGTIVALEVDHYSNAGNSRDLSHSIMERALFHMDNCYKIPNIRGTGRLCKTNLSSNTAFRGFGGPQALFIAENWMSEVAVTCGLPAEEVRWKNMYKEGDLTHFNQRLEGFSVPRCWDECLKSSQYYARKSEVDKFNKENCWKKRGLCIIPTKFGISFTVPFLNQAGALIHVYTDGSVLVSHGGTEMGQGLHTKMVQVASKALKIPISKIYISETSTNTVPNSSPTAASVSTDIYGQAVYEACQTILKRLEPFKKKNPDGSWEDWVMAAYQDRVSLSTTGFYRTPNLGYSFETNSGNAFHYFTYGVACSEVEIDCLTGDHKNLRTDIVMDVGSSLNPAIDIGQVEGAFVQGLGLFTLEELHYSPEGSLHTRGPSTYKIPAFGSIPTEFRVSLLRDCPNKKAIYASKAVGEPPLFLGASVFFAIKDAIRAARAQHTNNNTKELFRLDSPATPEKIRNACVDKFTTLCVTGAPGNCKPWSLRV
Assay: Inhibition of bovine xanthine oxidase assessed as reduction in uric acid formation at 10 uM using xanthine as substrate preincubated for 15 mins followed by substrate addition measured at 30 sec interval for upto 2 mins by spectrophotometric analysis relative to control
Details: cattle, time 17 min
For `CCCSc1nc(N[C@@H]2C[C@H]2c2ccc(F)c(F)c2)c2nnn([C@@H]3C[C@H](OCCO)[C@@H](O)[C@H]3O)c2n1` [TICAGRELOR], the inhibition at 10 µM was < 50%.
